In patent US20170119683A1, “BIOPOLYMER-ENCAPSULATED GLYCOSYL TRANSFERASE INHIBITOR COMPOSITIONS AND METHODS FOR TREATING DIABETES AND CARDIAC INDICATIONS” (The Johns Hopkins University, priority 2014, published 2017):
Entries after “also recorded” stand apart in the source; their conditions may differ.

How the values were obtained:
[1] = test system: cultured human arterial cell monolayer; experiment: in vitro model of wounding in cultured arterial cell monolayer; format: cell-based
[2] = in vivo
[3] = test system: apoE -/- mice fed a high fat and high cholesterol (HFHC) diet; experiment: aortic histopathology and ultrasound imaging, atherosclerosis in apoE -/- mice fed HFHC diet; format: in vivo; settings: FIG. 2B
[4] = in vivo; cited from earlier work
[5] = test system: Apolipoprotein E-/- mice; experiment: Example 6: ox-LDL, GalT-V and amyloid-β (ELISA, Western) in ApoE-/- mice fed HFHC diet; format: in vivo
Protocol: Testing of the impact of D-PDMP in a mouse AD model and quantification of biomarkers in such studies was performed in the following manner. […] These mice were fed either a normal diet (control) or a high-fat high-cholesterol (HFHC) diet. While a subset of the mice fed the high-fat diet was retained as a placebo group, others were treated with 5 mg/kg (mpk) or 10 mpk of the D-PDMP drug. After euthanizing these animals, tissue and blood samples were stored for further biochemical analysis. For the quantification of the biomarkers, […] (ELISA) was used. For the measurement of ox-LDL, mouse serum was coated onto the bottom of a well. […] A secondary antibody was administered to that attached specifically to the primary antibody. This secondary antibody presented an attached reporter, allowing amounts of ox-LDL could be quantified. A substrate was bound to the reporter and fluoresced. […] ELISA was also employed for quantifying levels of GalT-V and amyloid-β, using different target-specific antibodies.

[6] = native, not encapsulated
[7] = test system: adipocytes; experiment: TNF induced insulin resistance in adipocytes; format: cell-based; settings: chronic exposure to low levels of TNF
Excerpt: Additionally, adipocytes were made insulin resistant by chronic exposure to low levels of tumor necrosis factor (TNF). […] This latter patient population is estimated at 10 million in the US alone.

[8] = 5 mpk and 10 mpk by injection, not biopolymer-encapsulated

Compound: CCCCCCCCCC(=O)N[C@H](CN1CCOCC1)[C@H](O)c1ccccc1.Cl [D-PDMP, D-threo-1-phenyl-2-decanoylamino-3-morpholino-1-propanol]
- wound healing [1]: facilitated healing
- toxicity [2]: no toxicity
- returning aortic intima-media thickness of the ascending aorta to control levels [3]: equally efficacious
- half-life [4]: approximately 52 minutes
- levels of GalT-V [5, 8]: dose-dependently decreased; also recorded: decreased levels
- levels of ox-LDL [5, 8]: dose-dependently decreased; also recorded: decreased levels
- amyloid-β levels ([5]; 5 mpk and 10 mpk by injection, not biopolymer-encapsulated, brain tissue): dose-dependently decreased; also recorded: reduction
- levels of atherosclerosis and Alzheimer's disease biomarkers ([5]; ApoE -/- model mice): markedly reduced
- residence time in the body of the mice [6]: about an hour
- TNF induced impairment in insulin signaling [7]: reversed
